This data set can be described thus: Circular dichroism spectroscopy, α-helical content. Format: physicochemical. Conditions: CD, 10 mM phosphate buffer pH 7.5, 50 μM peptide, 25°C, calculated from ellipticity at 222 nm; average of three measurements. The method, then:
The α-helical stabilization appeared to be higher for the i, i + 7 staples overall.
The circular dichroism spectra were acquired on a Chirascan spectropolarimeter. The samples were prepared in 10 mM phosphate buffer, pH 7.5, at a peptide concentration of 50 μM. Data were recorded at 25°C by step scan from 180 nm to 260 nm in a 0.5-mm-pathlength quartz cell using 0.2-nm-wavelength increments, a 1-nm bandwidth, and a response time of 1 s. Each spectrum was an average of three measurements and was subtracted from the buffer baseline. The data were converted to per residue molar ellipticity units (θ; in degrees · square centimeters · decimoles^−1 · number of residues^−1) and smoothed using Igor Pro software. Percent helicity was calculated as follows: (100 × CD222)/(C × N × {40,000 × [1 − (2.5/N)]}), where CD222 is the molar ellipticity (θ) at 222 nm (in millidegrees), N is the number of amino acids in the peptide, and C is the peptide molar concentration (in moles per liter).

This is an account of results in publication PMC7508628, “Targeting the Respiratory Syncytial Virus N^0-P Complex with Constrained α-Helical Peptides in Cells and Mice” (Antimicrobial Agents and Chemotherapy, 2020).

Where a SMILES comes first, the peptide text is derived from it. Bridges are numbered along the chain shown (N, C = ends). [ ]: non-standard residue; d: D form. R5 = C=CCCC[C@@](C)(N)C(=O)O; S5 = C=CCCC[C@](C)(N)C(=O)O

As to `CC[C@H](C)[C@H](NC(=O)[C@H](CO)NC(=O)[C@H](CCC(=O)O)NC(=O)[C@H](CC(C)C)NC(=O)[C@H](Cc1ccccc1)NC(=O)[C@]1(C)CCCC=CCCC[C@@](C)(NC(=O)[C@H](CC(N)=O)NC(=O)[C@H](CC(N)=O)NC(=O)[C@H](C)NC(=O)[C@H](CC(=O)O)NC(=O)[C@H](CCC(=O)O)NC(C)=O)C(=O)N[C@@H](C)C(=O)N[C@@H]([C@@H](C)O)C(=O)N1)C(=O)N[C@@H](CCCCN)C(=O)NCC(=O)N[C@@H](CCCCN)C(=O)N[C@@H](Cc1ccccc1)C(=O)N[C@@H](C)C(=O)N[C@@H](CO)C(N)=O` [1b] (Ac-EDANN[R5]AT[S5]FLESIKGKFAS-NH2; staple 6-9), the “% helicity” value is recorded as 11.5%.

As to `CC[C@H](C)[C@@H]1NC(=O)[C@H](CO)NC(=O)[C@@](C)(NC(=O)[C@H](CC(C)C)NC(=O)[C@H](Cc2ccccc2)NC(=O)[C@H](CCCCN)NC(=O)[C@@H](NC(=O)[C@H](C)NC(=O)[C@H](CCCCN)NC(=O)[C@H](CC(N)=O)NC(=O)[C@H](CC(N)=O)NC(=O)[C@H](C)NC(=O)[C@H](CC(=O)O)NC(=O)[C@H](CCC(=O)O)NC(=O)CNC(=O)[C@H](Cc2c[nH]cn2)NC(=O)[C@H](Cc2ccccc2)NC(=O)[C@H](CCC(=O)O)NC(C)=O)[C@@H](C)O)CCCC=CCCCC2(CCCC=CCCC[C@@](C)(C(=O)N[C@@H](CO)C(N)=O)NC(=O)[C@H](Cc3ccccc3)NC(=O)[C@H](CCCCN)NC2=O)NC(=O)[C@H](CCCCN)NC1=O` (some centres unmarked) [2e1f], the “% helicity” value is listed as 27.0%.

As to `CC[C@H](C)[C@H](NC(=O)[C@H](CO)NC(=O)[C@H](CCC(=O)O)NC(=O)[C@H](CC(C)C)NC(=O)[C@H](Cc1ccccc1)NC(=O)[C@H](CCCCN)NC(=O)[C@@H](NC(=O)[C@H](C)NC(=O)[C@H](CCCCN)NC(=O)[C@]1(C)CCCC=CCCC[C@@](C)(NC(=O)[C@H](CCC(=O)O)NC(=O)CNC(=O)[C@H](Cc2c[nH]cn2)NC(=O)[C@H](Cc2ccccc2)NC(=O)[C@H](CCC(=O)O)NC(C)=O)C(=O)N[C@@H](C)C(=O)N[C@@H](CC(N)=O)C(=O)N1)[C@@H](C)O)C(=O)N[C@@H](CCCCN)C(=O)NCC(=O)N[C@@H](CCCCN)C(=O)N[C@@H](Cc1ccccc1)C(=O)N[C@@H](C)C(=O)N[C@@H](CO)C(N)=O` [4b] (Ac-EFHGE[R5]AN[S5]KATKFLESIKGKFAS-NH2; staple 6-9), the “% helicity” value is 21.7%.

For `CC[C@H](C)[C@H](NC(=O)[C@H](CO)NC(=O)[C@H](CCC(=O)O)NC(=O)[C@H](CC(C)C)NC(=O)[C@H](Cc1ccccc1)NC(=O)[C@H](CCCCN)NC(=O)[C@@H](NC(=O)[C@H](C)NC(=O)[C@]1(C)CCCC=CCCC[C@](C)(NC(=O)[C@H](CCC(=O)O)NC(=O)CNC(=O)[C@H](Cc2c[nH]cn2)NC(=O)[C@H](Cc2ccccc2)NC(=O)[C@H](CCC(=O)O)NC(C)=O)C(=O)N[C@@H](C)C(=O)N[C@@H](CC(N)=O)C(=O)N[C@@H](CC(N)=O)C(=O)N1)[C@@H](C)O)C(=O)N[C@@H](CCCCN)C(=O)NCC(=O)N[C@@H](CCCCN)C(=O)N[C@@H](Cc1ccccc1)C(=O)N[C@@H](C)C(=O)N[C@@H](CO)C(N)=O` [4d] (Ac-EFHGE[S5]ANN[S5]ATKFLESIKGKFAS-NH2; staple 6-10), the “% helicity” value was 28.0%.

Regarding `CC[C@H](C)[C@H](NC(=O)[C@]1(C)CCCCCCC=CCCCC2(CCCC=CCCCCCC[C@@](C)(NC(=O)[C@H](Cc3ccccc3)NC(=O)[C@H](CCC(=O)O)NC(C)=O)C(=O)NCC(=O)N[C@@H](CCC(=O)O)C(=O)N[C@@H](CC(=O)O)C(=O)N[C@@H](C)C(=O)N[C@@H](CC(N)=O)C(=O)N[C@@H](CC(N)=O)C(=O)N2)C(=O)N[C@@H](C)C(=O)N[C@@H]([C@@H](C)O)C(=O)N[C@@H](CCCCN)C(=O)N[C@@H](Cc2ccccc2)C(=O)N[C@@H](CC(C)C)C(=O)N[C@@H](CCC(=O)O)C(=O)N1)C(=O)N[C@@H](CCCCN)C(=O)NCC(=O)N[C@@H](CCCCN)C(=O)N[C@@H](Cc1ccccc1)C(=O)N[C@@H](C)C(=O)N[C@@H](CO)C(N)=O` (some centres unmarked) [4e3b], the “% helicity” value was 51.1%.
